Each structure is given as a SMILES string.

We go through one compound from patent US4321381A, “Ergot derivatives” (Farmitalia Carlo Erba S.p.A., priority 1978, dated 1982).

For data set [1], the system named is spontaneously hypertensive male rats, strain MHS. Nature of the data set: Anti-hypertensive activity in the spontaneously hypertensive rat (MHS): blood pressure and heart rate at the tail. The class given is in vivo. The procedure:
1. Spontaneously Hypertensive Rat (MHS)
Four spontaneously hypertensive male rats, strain MHS, weight 250 to 300 g for each group were used. The animals were treated for four consecutive days. The drugs were administered by gastric gavage while suspended in 5% arabic gum (0.2 ml/100 g body weight), and blood pressure (BP) and heart rate (HR) were measured at the tail by BP Recorder W+W. Blood pressure and heart rate were measured on the first and fourth day of treatment 1 hour before and 1 and 5 hours after drug administration.

Data set [2] relates to male mice. Nature of the data set: Acute toxicity (LD50) in mice. The class given is in vivo, mouse. As to conditions: oral, observed for seven days, 10080 min. From the text:
Evaluation of the Toxicity (LD50)
Ten male mice for each group were orally treated with drugs at different dose levels for the determination of lethal dose 50 (LD50).

Setting [3] is: 100 mg/kg os, first day, 1 hr after dose.

Regarding `C[C@](N)(Cc1ccc(O)c(O)c1)C(=O)O` [α-methyl-DOPA, reference compound], the “Change in HR, 1 hr after dose, first day” value in data set [1] (30 mg/kg os, first day, 1 hr after dose) is on record as “+40 b/min”; in data set [1] (setting [3]) it was “+87 b/min”. The “Change in HR, 5 hr after dose, first day” value in data set [1] (30 mg/kg os, first day, 5 hr after dose) is on record as “+15 b/min”. The “Change in BP, 5 hrs after dose, first day” value in data set [1] (30 mg/kg os, first day) is given as -12 mm Hg; in data set [1] (100 mg/kg os, first day), -38 mm Hg. Further, the “Change in BP, 1 hr after dose, fourth day” value in data set [1] (30 mg/kg os, 1 hr after dose) is listed as -12 mm Hg; in data set [1] (100 mg/kg os, 1 hr after dose), -41 mm Hg. Besides, the “Change in HR, 1 hr after dose, fourth day” value is given as “+57 b/min” in data set [1] (30 mg/kg os, 1 hr after dose) and “+77 b/min” in data set [1] (100 mg/kg os, 1 hr after dose). In addition, the “Change in HR, 5 hr after dose, fourth day” value in data set [1] (30 mg/kg os, 5 hr after dose) is on record as -18 b/min; in data set [1] (100 mg/kg os, 5 hr after dose), “+37 b/min”. Further, the “Change in BP, 5 hrs after dose, fourth day” value in data set [1] (30 mg/kg os) is on record as -19 mm Hg; in data set [1] (100 mg/kg os) it was -53 mm Hg. Besides, the “Change in BP, 1 hr after dose, first day” value in data set [1] (setting [3]) is recorded as “+5 mm Hg”. Further, the “variation of the heart rate (HR), in words” value in data set [1] (Table 2) is “greatly increases it”. In data set [2], this compound returned an LD50 of 5300 mg/kg per os.
